Measurements published in patent publication US20250032477A1, “COMPOUNDS, PHARMACEUTICAL COMPOSITIONS, AND METHODS FOR THE TREATMENT, PREVENTION, OR MANAGEMENT OF HYPERPROLIFERATIVE DISORDERS” (VINCERX PHARMA GMBH, priority 2021, published 2025).
Counter-ions that a name gives are not always drawn. Like-named read-outs stand apart in the source and are kept apart here.

Columns and labels:
HT29 [1] = test: Cytotoxicity in vitro in the presence and absence of elastase (MTT); type: cell-based, human
Protocol: (§1) Cultivation of cells was performed according to standard procedures with the media recommended by the provider. The cells, in a total volume of 100 μL, were seeded in a 96-well plate with a white bottom (#3610). After a 24 h incubation period at 37° C. and […], the medium was exchanged by adding 90 μL fresh medium. The treatment started by adding the test compound in 10 μL of culture medium to the cells in triplicates. Concentrations ranging from 10^−5 M to 10^−13 M were chosen. Two identically treated sets of samples were prepared. One set was treated with the test compound alone, whereas to the second set the compound and 10 nM elastase was added followed by a 72 h incubation period at 37° C. and 5% CO2. The proliferation was detected using the MTT assay (ATCC). At the end of the incubation period the MTT reagent was added to all samples for 4 h. Lysis of the cells followed by addition of the detergent was done overnight. The formed dye was detected at 570 nm. The proliferation of untreated but otherwise identically handled cells was define as the […].

786-O [2] = test: as above; type: cell-based, human
Protocol: as §1

NCI H292 [3] = test: as above; type: cell-based, human
Protocol: as §1

SUM149 [4] = test: as above; type: cell-based
Protocol: as §1

HT29 [5] = test: Cytotoxicity assay (Version 2), automated, AC50, with or without elastase; type: cell-based, human
Protocol: as §1
(§2) The Cytotoxicity assay (Version 2) was performed as above described. Some changes were applied as the assays were performed in an automated fashion and the IC50 values determination was changed. Here the change in metabolic activity of the cells, in percent, was calculated by normalization of the measured values to the absorbance values of medium containing wells without cells (=−100%) and the absorbance of the DMSO-treated cells (=0%). AC50 values (activity concentration at −50%) were determined by means of a 4 parameter Hill-fit using GeneData Screener software.

786-O [6] = test: as above; type: cell-based, human
Protocol: as §1, §2

NCI H292 [7] = test: as above; type: cell-based, human
Protocol: as §1, §2

SUM149 [8] = test: as above; type: cell-based
Protocol: as §1, §2

[9] = read-out: 786-O IC50 w elastase
[10] = read-out: NCI H292 IC 50 w elastase
[11] = read-out: SUM149 IC50 w elastase

Compound	IC50 (HT29 [1]; read-out: HT29 IC50 w elastase) [nM]	IC50 (HT29 [1]; read-out: HT29 IC50 w/o) [nM]	IC50 (786-O [2]; [9]) [nM]	IC50 (786-O [2]; read-out: 786-O IC50 w/o) [nM]	IC50 (NCI H292 [3]; [10]) [nM]	IC50 (NCI H292 [3]; read-out: NCI H292 IC 50 w/o) [nM]	IC50 (SUM149 [4]; [11]) [nM]	IC50 (SUM149 [4]; read-out: SUM149 IC50 w/o) [nM]	other results
CCCNC(=O)Nc1cccc(S(=O)(=O)Nc2cccc([C@@H](CC(=O)O)NC(=O)Nc3ccc(NC(=O)NCCN(C)CCN(C)CCN(C)CC(=O)N[C@@H](CC(N)=O)C(=O)N4CCC[C@H]4C(=O)N[C@H](C(=O)O[C@]4(CC)C(=O)OCc5c4cc4n(c5=O)Cc5cc6cc7c(cc6nc5-4)OCO7)C(C)C)cc3)c2)c1 [Compound 6, (7S)-7-ethyl-8,11-dioxo-7,8,11,13-tetrahydro-2H,10H-[1,3]dioxolo[4,5-g]pyrano[3′,4′:6,7] indolizino[1,2-b]quinolin-7-yl N-{2-[{2-[{2-[({4-[({(1R)-2-carboxy-1-[3-({3-[(propylcarbamoyl)amino]benzene-1-sulfonyl}amino)phenyl]ethyl}carbamoyl)amino]phenyl}carbamoyl)amino]ethyl}(methyl)amino]ethyl}(methyl)amino]ethyl}-N-methylglycyl-L-asparaginyl-L-prolyl-L-valinate]	–	–	–	–	–	–	–	–	IC50 (HT29 [1]; HT29 cells, with 10 nM elastase, 72 h, MTT, read-out: HT29 IC50 w elastase): 0.01 to 0.1 nM; IC50 (HT29 [1]; HT29 cells, without elastase, 72 h, MTT, read-out: HT29 IC50 w/o): 1.1 to 10 nM; IC50 (786-O [2]; 786-O cells, with 10 nM elastase, 72 h, MTT, read-out: 786-O IC50 w elastase): 0.01 to 0.1 nM; IC50 (786-O [2]; 786-O cells, without elastase, 72 h, MTT, read-out: 786-O IC50 w/o): 1.1 to 10 nM; IC50 (NCI H292 [3]; NCI H292 cells, with 10 nM elastase, 72 h, MTT, read-out: NCI H292 IC 50 w elastase): 0.01 to 0.1 nM; IC50 (NCI H292 [3]; NCI H292 cells, without elastase, 72 h, MTT, read-out: NCI H292 IC 50 w/o): 1.1 to 10 nM; IC50 (SUM149 [4]; SUM149 cells, with 10 nM elastase, 72 h, MTT, read-out: SUM149 IC50 w elastase): < 0.01 nM; IC50 (SUM149 [4]; SUM149 cells, without elastase, 72 h, MTT, read-out: SUM149 IC50 w/o): 0.1 to 1 nM
CCCNC(=O)Nc1cccc(S(=O)(=O)Nc2cccc([C@H](CC(=O)O)NC(=O)Nc3ccc(NC(=O)NCCOCCOCCOCCC(=O)N[C@@H](CC(=O)O)C(=O)N4CCC[C@H]4C(=O)N[C@H](C(=O)O[C@]4(CC)C(=O)OCc5c4cc4n(c5=O)Cc5cc6cc7c(cc6nc5-4)OCO7)C(C)C)cc3)c2)c1 [Compound 15, (7S)-7-ethyl-8,11-dioxo-7,8,11,13-tetrahydro-2H,10H-[1,3]dioxolo[4,5-g]pyrano [3′,4′:6,7]indolizino[1,2-b]quinolin-7-yl N-(14-{4-[({(1S)-2-carboxy-1-[3-({3-[(propylcarbamoyl)amino]benzene-1-sulfonyl}amino)phenyl]ethyl}carbamoyl)amino]anilino}-14-oxo-4,7,10-trioxa-13-azatetradecanan-1-oyl)-L-alpha-aspartyl-L-prolyl-L-valinate-bis sodium salt]	0.01 to 0.1	10 to 100	0.01 to 0.1	10 to 100	0.01 to 0.1	1.1 to 10	< 0.01	1.1 to 10	–
CCCNC(=O)Nc1cccc(S(=O)(=O)Nc2cccc([C@@H](CC(=O)O)NC(=O)Nc3ccc(NC(=O)NCCOCCOCCOCCC(=O)N[C@@H](CC(=O)O)C(=O)N4CCC[C@H]4C(=O)N[C@H](C(=O)O[C@]4(CC)C(=O)OCc5c4cc4n(c5=O)Cc5c-4nc4cc(F)c(C)c6c4c5[C@@H](N(CC)CC)CC6)C(C)C)cc3)c2)c1 [Compound 19, (1S,9S)-1-(diethylamino)-9-ethyl-5-fluoro-4-methyl-10,13-dioxo-2,3,9,10,13,15-hexahydro-1H,12H-benzo[de]pyrano[3′,4′:6,7]indolizino[1,2-b]quinolin-9-yl N-(14-{4-[({(1R)-2-carboxy-1-[3-({3-[(propylcarbamoyl)amino]benzene-1-sulfonyl}amino)phenyl]ethyl}carbamoyl)amino]anilino}-14-oxo-4,7,10-trioxa-13-azatetradecanan-1-oyl)-L-alpha-aspartyl-L-prolyl-L-valinate]	–	–	–	–	–	–	–	–	AC50 (HT29 [5]; HT29 cells, Version 2, with elastase, activity concentration at −50%, read-out: HT29 AC50 +elastase): 11 to 100 nM; AC50 (HT29 [5]; HT29 cells, Version 2, without elastase, activity concentration at −50%, read-out: HT29 AC50 −elastase): > 100 nM; AC50 (786-O [6]; 786-O cells, Version 2, with elastase, activity concentration at −50%, read-out: 786-O AC50 +elastase): 1.1 to 10 nM; AC50 (786-O [6]; 786-O cells, Version 2, without elastase, activity concentration at −50%, read-out: 786-O AC50 −elastase): > 100 nM; AC50 (NCI H292 [7]; NCI H292 cells, Version 2, with elastase, activity concentration at −50%, read-out: NCI H292 AC50 +elastase): 11 to 100 nM; AC50 (NCI H292 [7]; NCI H292 cells, Version 2, without elastase, activity concentration at −50%, read-out: NCI H292 AC50 −elastase): > 100 nM; AC50 (SUM149 [8]; SUM149 cells, Version 2, with elastase, activity concentration at −50%, read-out: SUM149 AC50 +elastase): 1.1 to 10 nM; AC50 (SUM149 [8]; SUM149 cells, Version 2, without elastase, activity concentration at −50%, read-out: SUM149 AC50 −elastase): > 100 nM
CC[C@@]1(O)C(=O)OCc2c1cc1n(c2=O)Cc2c-1nc1cc(F)c(C)c3c1c2[C@@H](N(C)C)CC3 [Compound 18, (1S,9S)-1-(dimethylamino)-9-ethyl-5-fluoro-9-hydroxy-4-methyl-1,2,3,9,12,15-hexahydro-10H,13H-benzo[de]pyrano[3′,4′:6,7]indolizino[1,2-b]quinoline-10,13-dione]	–	–	–	–	–	–	–	–	AC50 (HT29 [5]; Homo sapiens, HT-29, read-out: HT29 AC50 +elastase): 1.1 to 10 nM; AC50 (HT29 [5]; Homo sapiens, HT-29, read-out: HT29 AC50 −elastase): 11 to 100 nM; AC50 (786-O [6]; Homo sapiens, 786-0, read-out: 786-O AC50 +elastase): 11 to 100 nM; AC50 (786-O [6]; Homo sapiens, 786-0, read-out: 786-O AC50 −elastase): 11 to 100 nM; AC50 (NCI H292 [7]; Homo sapiens, NCI-H292, read-out: NCI H292 AC50 +elastase): 1.1 to 10 nM; AC50 (NCI H292 [7]; Homo sapiens, NCI-H292, read-out: NCI H292 AC50 −elastase): 1.1 to 10 nM; AC50 (SUM149 [8]; SUM149, read-out: SUM149 AC50 +elastase): 1.1 to 10 nM; AC50 (SUM149 [8]; SUM149, read-out: SUM149 AC50 −elastase): 1.1 to 10 nM
CCCNC(=O)Nc1cccc(S(=O)(=O)Nc2cccc([C@@H](CC(=O)O)NC(=O)Nc3ccc(NC(=O)NCCOCCOCCOCCC(=O)N[C@@H](CC(=O)O)C(=O)N4CCC[C@H]4C(=O)N[C@H](C(=O)O[C@]4(CC)C(=O)OCc5c4cc4n(c5=O)Cc5c-4nc4cc(F)c(C)c6c4c5[C@@H](NC(=O)OCc4ccccc4)CC6)C(C)C)cc3)c2)c1 [Compound 3, (1S,9S)-1-{[(benzyloxy)carbonyl]amino}-9-ethyl-5-fluoro-4-methyl-10,13-dioxo-2,3,9,10,13,15-hexahydro-1H,12H-benzo[de]pyrano[3′,4′:6,7] indolizino[1,2-b]quinolin-9-yl N-(14-{4-[({(1R)-2-carboxy-1-[3-({3-[(propylcarbamoyl)amino]benzene-1-sulfonyl}amino)phenyl]ethyl}carbamoyl)amino]anilino}-14-oxo-4,7,10-trioxa-13-azatetradecanan-1-oyl)-L-alpha-aspartyl-L-prolyl-L-valinate]	0.1 to 1	> 100	0.1 to 1	10 to 100	0.01 to 0.1	1.1 to 10	0.01 to 0.1	10 to 100	–
CCCNC(=O)Nc1cccc(S(=O)(=O)Nc2cccc([C@H](CC(=O)O)NC(=O)Nc3ccc(NC(=O)NCCOCCOCCOCCC(=O)N[C@@H](CC(=O)O)C(=O)N4CCC[C@H]4C(=O)N[C@H](C(=O)O[C@]4(CC)C(=O)OCc5c4cc4n(c5=O)Cc5c-4nc4cc(F)c(C)c6c4c5[C@@H](NC(C)=O)CC6)C(C)C)cc3)c2)c1 [Compound 13, disodium (1S,9S)-1-acetamido-9-ethyl-5-fluoro-4-methyl-10,13-dioxo-2,3,9,10,13,15-hexahydro-1H,12H-benzo[de]pyrano[3′,4′:6,7]indolizino[1,2-b]quinolin-9-yl 1-[(2S)-2-(carboxylatomethyl)-17-{4-[({(1S)-2-carboxylato-1-[3-({3-[(propylcarbamoyl)amino]benzene-1-sulfonyl}amino)phenyl]ethyl}carbamoyl)amino]anilino}-4,17-dioxo-7,10,13-trioxa-3,16-diazaheptadecanan-1-oyl]-L-prolyl-L-valinate]	0.1 to 1	> 100	0.01 to 0.1	10 to 100	0.01 to 0.1	1.1 to 10	0.01 to 0.1	1.1 to 10	–
